ChEMBL document CHEMBL1123385, “Stereoselectivity of a potent calcium antagonist, 1-benzyl-3-pyrrolidinyl methyl 2,6-dimethyl-4-(m-nitrophenyl)-1,4-dihydropyridine-3,5-dicarboxylate” (J Med Chem, 1986)

Assays:
Rattus norvegicus = species: Rattus norvegicus; assay: Hill coefficient of the compound; details: in vitro
[1] = target: Voltage-gated L-type calcium channel (Rattus norvegicus, UniProt P22002+Q02485+P27732); assay: Inhibition of [3H]nitrendipine binding to L-type calcium channel from rat brain cortex homogenate
Canis familiaris = assay: The compound was tested for coronary vasodilating activity in anesthetized coronary perfused dogs; type: functional, Canis lupus familiaris

Compound | Hill coefficient (Rattus norvegicus) | Ki [1] [nM l-1] | ED100 (Canis familiaris) [µg]
COC(=O)C1=C(C)NC(C)=C(C(=O)OC)C1c1ccccc1[N+](=O)[O-] [NIFEDIPINE] | 1.105 |  | 
COC(=O)C1=C(C)NC(C)=C(C(=O)OCCN(C)Cc2ccccc2)[C@H]1c1cccc([N+](=O)[O-])c1 | 1.286 | 0.499 | 
COC(=O)C1=C(C)NC(C)=C(C(=O)OCCN(C)Cc2ccccc2)[C@@H]1c1cccc([N+](=O)[O-])c1 | 1.241 | 7.11 | 
COC(=O)C1=C(C)NC(C)=C(C(=O)OCCN(C)Cc2ccccc2)C1c1cccc([N+](=O)[O-])c1 (racemic) [NICARDIPINE] | 1.054 | 0.84 | 

Now from value to molecule, other results behind:

Hill coefficient (Rattus norvegicus) | Ki [1] [nM l-1] | Compound | ED100 (Canis familiaris) [µg]
1.143 | 14.3 | CO/C(O)=C1\C(C)=NC(C)=C(C(=O)O[C@@H]2CCN(Cc3ccccc3)C2)[C@@H]1c1cccc([N+](=O)[O-])c1.Cl | 3.1
0.752 | 3.09 | CO/C(O)=C1\C(C)=NC(C)=C(C(=O)O[C@@H]2CCN(Cc3ccccc3)C2)[C@H]1c1cccc([N+](=O)[O-])c1.Cl | 1.6
1.203 | 0.205 | CO/C(O)=C1\C(C)=NC(C)=C(C(=O)O[C@H]2CCN(Cc3ccccc3)C2)[C@H]1c1cccc([N+](=O)[O-])c1.Cl | 0.57
0.957 | 49.6 | CO/C(O)=C1\C(C)=NC(C)=C(C(=O)O[C@H]2CCN(Cc3ccccc3)C2)[C@@H]1c1cccc([N+](=O)[O-])c1.Cl (racemic) | 9.1
